Assay results reported in patent US8461328B2, “Tricyclic heterocyclic compounds, compositions and methods of use thereof” (Genentech, Inc., priority 2010, dated 2013).
pKi: −log10 of the molar value.

Tests used:
Assay type in all cases: biochemical
[1] = biological target: T1, TYK2 (Homo sapiens, UniProt P29597); assay: TYK2 inhibition (Table 4)
T1 construct: made in house; host or cells: SF9 insect cells (baculovirus)
T1 sequence (P29597 873-1187): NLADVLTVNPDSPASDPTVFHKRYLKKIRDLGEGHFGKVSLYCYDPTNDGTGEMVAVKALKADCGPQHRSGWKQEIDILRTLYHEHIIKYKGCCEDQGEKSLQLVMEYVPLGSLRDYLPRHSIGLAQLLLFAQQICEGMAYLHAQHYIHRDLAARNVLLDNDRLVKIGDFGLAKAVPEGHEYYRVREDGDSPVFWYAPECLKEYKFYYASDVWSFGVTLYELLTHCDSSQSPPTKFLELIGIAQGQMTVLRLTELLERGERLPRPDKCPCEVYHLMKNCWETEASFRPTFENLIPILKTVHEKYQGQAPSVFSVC

[2] = biological target: T2, JAK3 (Homo sapiens, UniProt P52333); assay: JAK3 inhibition (Table 4); conditions: read-out: JAK3 Ki
T2 construct: made in house; host or cells: SF9 insect cells (baculovirus)

[3] = biological target: T3, JAK1 (Homo sapiens, UniProt P23458); assay: JAK1 inhibition (Table 4); conditions: read-out: JAK1 Ki
T3 construct: made in house; host or cells: SF9 insect cells (baculovirus)

[4] = biological target: T4, JAK2 (Homo sapiens, UniProt O60674); assay: JAK2 inhibition (Table 4); conditions: read-out: JAK2 Ki
T4 construct: made in house; host or cells: SF9 insect cells (baculovirus)
T4 sequence (O60674 812-1132): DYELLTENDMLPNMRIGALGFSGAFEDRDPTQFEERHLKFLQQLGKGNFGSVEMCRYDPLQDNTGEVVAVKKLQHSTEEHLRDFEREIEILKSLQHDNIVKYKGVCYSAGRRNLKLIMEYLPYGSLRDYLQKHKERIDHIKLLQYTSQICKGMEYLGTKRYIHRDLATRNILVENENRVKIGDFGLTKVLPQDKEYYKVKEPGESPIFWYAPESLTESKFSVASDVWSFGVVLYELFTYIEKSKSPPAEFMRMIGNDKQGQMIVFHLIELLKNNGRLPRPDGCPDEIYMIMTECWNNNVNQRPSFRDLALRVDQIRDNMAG

T2 sequence (P52333 783-1124): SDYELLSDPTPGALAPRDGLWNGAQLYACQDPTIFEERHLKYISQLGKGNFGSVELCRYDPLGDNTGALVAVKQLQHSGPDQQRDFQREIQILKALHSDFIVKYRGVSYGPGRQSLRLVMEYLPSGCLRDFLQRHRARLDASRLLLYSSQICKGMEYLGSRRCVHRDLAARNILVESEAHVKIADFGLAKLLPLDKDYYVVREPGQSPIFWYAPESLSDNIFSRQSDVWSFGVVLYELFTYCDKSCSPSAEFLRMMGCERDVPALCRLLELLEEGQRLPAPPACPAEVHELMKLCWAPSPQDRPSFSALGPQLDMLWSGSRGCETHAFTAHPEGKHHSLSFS
T3 sequence (P23458 852-1154): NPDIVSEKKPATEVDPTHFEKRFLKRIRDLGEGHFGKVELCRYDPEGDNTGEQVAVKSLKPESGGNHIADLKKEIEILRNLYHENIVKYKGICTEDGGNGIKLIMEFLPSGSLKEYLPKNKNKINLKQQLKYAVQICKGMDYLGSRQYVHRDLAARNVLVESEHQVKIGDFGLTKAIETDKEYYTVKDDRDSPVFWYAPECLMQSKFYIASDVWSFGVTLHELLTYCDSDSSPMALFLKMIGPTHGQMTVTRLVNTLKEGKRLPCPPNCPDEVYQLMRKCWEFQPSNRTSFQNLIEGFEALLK

| SMILES | pKi [1] | pKi [2] | pKi [3] | pKi [4] |
| --- | --- | --- | --- | --- |
| N#CCCN1CCC(n2c(CC3CCCOC3)nc3cnc4[nH]ccc4c32)CC1 (racemic) [Example 409, 3-{4-[2-(Tetrahydro-pyran-3-ylmethyl)-6H-1,3,5,6-tetraaza-as-indacen-1-yl]-piperidin-1-yl}-propionitrile] | 6.49 | 6.90 | 7.58 | 6.90 |
| CCC(COC)n1c(C)nc2cnc3[nH]ccc3c21 (racemic) [Example 415, 1-(1-Methoxymethyl-propyl)-2-methyl-1,6-dihydro-1,3,5,6-tetraaza-as-indacene] | 6.04 | 6.96 | 6.94 | 6.63 |
| Cc1nc2cnc3[nH]ccc3c2n1C(C)CCO (racemic) [Example 416, 3-(2-Methyl-6H-1,3,5,6-tetraaza-as-indacen-1-yl)-butan-1-ol] | 6.47 | 7.31 | 7.47 | 6.90 |
| CCC(COC)n1cnc2cnc3[nH]ccc3c21 (racemic) [Example 419, 1-(1-Methoxymethyl-propyl)-1,6-dihydro-1,3,5,6-tetraaza-as-indacene] | 6.09 | 6.80 | 6.84 | 6.70 |
| CC(C(=O)N1CCC(n2cnc3cnc4[nH]ccc4c32)CC1)N(C)C (racemic) [Example 438, 2-Dimethylamino-1-[4-(6H-1,3,5,6-tetraaza-as-indacen-1-yl)-piperidin-1-yl]-propan-1-one] | 6.08 | 5.62 | 7.63 | 6.73 |
| c1cc2c(ncc3ncn(C4CCCNCC4)c32)[nH]1 (racemic) [Example 489, 1-Azepan-4-yl-1,6-dihydro-1,3,5,6-tetraaza-as-indacene] | 6.22 | 6.49 | 7.47 | 6.50 |
| c1cc2c(ncc3ncn(CC4CCNC4)c32)[nH]1 (racemic) [Example 490, 1-Pyrrolidin-3-ylmethyl-1,6-dihydro-1,3,5,6-tetraaza-as-indacene] | 5.46 | 5.73 | 6.41 | 5.96 |
| CCC(C)S(=O)(=O)NCc1nc2cnc3[nH]ccc3c2n1C1CCN(CCC#N)CC1 (racemic) [Example 502, Butane-2-sulfonic acid {1-[1-(2-cyano-ethyl)-piperidin-4-yl]-1,6-dihydro-1,3,5,6-tetraaza-as-indacen-2-ylmethyl}-amide] | 6.38 | 6.98 | 7.82 | 7.04 |
| N#CCCN1CCC(n2c(CCC3CCCO3)nc3cnc4[nH]ccc4c32)CC1 (racemic) [Example 517, 3-(4-{2-[2-(Tetrahydro-furan-2-yl)-ethyl]-6H-1,3,5,6-tetraaza-as-indacen-1-yl}-piperidin-1-yl)-propionitrile] | 6.53 | 7.28 | 7.99 | 7.24 |
| FC1CNCCC1n1nnc2cnc3[nH]ccc3c21 (racemic) [Example 518, 1-(3-Fluoro-piperidin-4-yl)-1,6-dihydro-1,2,3,5,6-pentaaza-as-indacene] | 5.70 | 5.84 | 6.64 | 6.07 |
| CC(O)c1nc2cnc3[nH]ccc3c2n1C1CCN(C(=O)N(C)C)CC1 (racemic) [Example 528, 4-[2-(1-Hydroxy-ethyl)-6H-1,3,5,6-tetraaza-as-indacen-1-yl]-piperidine-1-carboxylic acid dimethylamide] | 5.85 | 6.73 | 6.81 | 6.40 |
| CC(O)c1nc2cnc3[nH]ccc3c2n1C1CCN(CC(=O)N2CCCCC2)CC1 (racemic) [Example 529, 2-{4-[2-(1-Hydroxy-ethyl)-6H-1,3,5,6-tetraaza-as-indacen-1-yl]-piperidin-1-yl}-1-piperidin-1-yl-ethanone] | 5.66 | 6.25 | 7.71 | 6.55 |

Compounds with a higher pKi [1], results first:

| pKi [1] | pKi [2] | pKi [3] | pKi [4] | SMILES |
| --- | --- | --- | --- | --- |
| 6.58 | 6.38 | 7.42 | 6.89 | FC1CNCCC1n1cnc2cnc3[nH]ccc3c21 (racemic) [Example 520, 1-(3-Fluoro-piperidin-4-yl)-1,6-dihydro-1,3,5,6-tetraaza-as-indacene] |
| 6.63 | 7.43 | 7.78 | 7.51 | c1cncc(CN2CCCC(n3cnc4cnc5[nH]ccc5c43)CC2)c1 (racemic) [Example 487, 1-(1-Pyridin-3-ylmethyl-azepan-4-yl)-1,6-dihydro-1,3,5,6-tetraaza-as-indacene] |
| 6.73 | 7.06 | 7.50 | 7.43 | Cc1nc2cnc3[nH]ccc3c2n1C1CCc2cn[nH]c2C1 (racemic) [Example 488] |
| 6.83 | 7.05 | 8.01 | 7.61 | COC1CN(C)CCC1n1c(C)nc2cnc3[nH]ccc3c21 (racemic) [Example 534, 1-(3-Methoxy-1-methyl-piperidin-4-yl)-2-methyl-1,6-dihydro-1,3,5,6-tetraaza-as-indacene] |
| 6.99 | 7.16 | 7.95 | 7.40 | CC(CC#N)N1CCC(n2c(CNS(C)(=O)=O)nc3cnc4[nH]ccc4c32)CC1 (racemic) [Example 507, N-{1-[1-(2-Cyano-1-methyl-ethyl)-piperidin-4-yl]-1,6-dihydro-1,3,5,6-tetraaza-as-indacen-2-ylmethyl}-methanesulfonamide] |
| 7.00 | 7.53 | 8.14 | 7.74 | N#CCCN1CCC(n2c(C3CC3(F)F)nc3cnc4[nH]ccc4c32)CC1 (racemic) [Example 404, 3-{4-[2-(2,2-Difluoro-cyclopropyl)-6H-1,3,5,6-tetraaza-as-indacen-1-yl]-piperidin-1-yl}-propionitrile] |
| 7.01 | 7.06 | 7.91 | 7.48 | FC1CNCCC1n1nnc2cnc3[nH]ccc3c21 (racemic) [Example 525, 1-(3-Fluoro-piperidin-4-yl)-l,6-dihydro-1,2,3,5,6-pentaaza-as-indacene] |
| 7.05 | 6.65 | 7.92 | 7.35 | COC1CNCCC1n1c(C)nc2cnc3[nH]ccc3c21 (racemic) [Example 535, 1-(3-Methoxy-piperidin-4-yl)-2-methyl-1,6-dihydro-1,3,5,6-tetraaza-as-indacene] |
| 7.19 | 6.72 | 6.97 | 6.70 | CC(O)c1nc2cnc3[nH]ccc3c2n1C1CCN(S(C)(=O)=O)CC1 (racemic) [Example 527, 1-[1-(1-Methanesulfonyl-piperidin-4-yl)-1,6-dihydro-1,3,5,6-tetraaza-as-indacen-2-yl]-ethanol] |
| 7.22 | 7.31 | 8.04 | 7.80 | CCN1CCC(n2nnc3cnc4[nH]ccc4c32)C(F)(F)C1 (racemic) [Example 533, 1-(1-Ethyl-3,3-difluoro-piperidin-4-yl)-1,6-dihydro-1,2,3,5,6-pentaaza-as-indacene] |
| 7.60 | 6.92 | 8.62 | 7.36 | O=C(NCCc1nc2cnc3[nH]ccc3c2n1C1CCCCC1)C1CC1(F)F (racemic) [Example 515, 2,2-Difluoro-cyclopropanecarboxylic acid [2-(1-cyclohexyl-1,6-dihydro-1,3,5,6-tetraaza-as-indacen-2-yl)-ethyl]-amide] |
| 7.61 | 7.48 | 8.76 | 8.31 | N#CCC(=O)N1CCC(F)C(n2nnc3cnc4[nH]ccc4c32)C1 (racemic) [Example 519, 3-[4-Fluoro-3-(6H-1,2,3,5,6-pentaaza-as-indacen-1-yl)-piperidin-1-yl]-3-oxo-propionitrile] |
| 7.62 | 7.52 | 8.54 | 8.22 | CCN1CCC(n2cnc3cnc4[nH]ccc4c32)C(F)(F)C1 (racemic) [Example 532, 1-(1-Ethyl-3,3-difluoro-piperidin-4-yl)-1,6-dihydro-1,3,5,6-tetraaza-as-indacene] |
| 7.66 | 7.99 | 8.46 | 8.20 | Cc1nc2cnc3[nH]ccc3c2n1C1CCc2[nH]ncc2C1 (racemic) [Example 486, 2-Methyl-1-(4,5,6,7-tetrahydro-1H-indazol-5-yl)-1,6-dihydro-1,3,5,6-tetraaza-as-indacene] |
| 7.67 | 8.37 | 8.75 | 8.34 | CCN1CCC(n2c(C)nc3cnc4[nH]ccc4c32)C(F)(F)C1 (racemic) [Example 531, 1-(1-Ethyl-3,3-difluoro-piperidin-4-yl)-2-methyl-1,6-dihydro-1,3,5,6-tetraaza-as-indacene] |
| 7.90 | 8.79 | 9.19 | 9.11 | Cc1nc2cnc3[nH]ccc3c2n1C1CCN(Cc2ccccc2)CC1(F)F (racemic) [Example 428, 1-(1-Benzyl-3,3-difluoro-piperidin-4-yl)-2-methyl-1,6-dihydro-1,3,5,6-tetraaza-as-indacene] |
| 8.18 | 7.72 | 8.97 | 8.72 | N#CCC(=O)N1CCCC(n2cnc3cnc4[nH]ccc4c32)CC1 (racemic) [Example 485, 3-Oxo-3-[4-(6H-1,3,5,6-tetraaza-as-indacen-1-yl)-azepan-1-yl]-propionitrile] |
